This passage reports IC50 results from paper PMC5466188 (Biotechnology Reports, 2014).

Chain of Acetylcholinesterase (AChE, from electric eel) (O42275 24-633): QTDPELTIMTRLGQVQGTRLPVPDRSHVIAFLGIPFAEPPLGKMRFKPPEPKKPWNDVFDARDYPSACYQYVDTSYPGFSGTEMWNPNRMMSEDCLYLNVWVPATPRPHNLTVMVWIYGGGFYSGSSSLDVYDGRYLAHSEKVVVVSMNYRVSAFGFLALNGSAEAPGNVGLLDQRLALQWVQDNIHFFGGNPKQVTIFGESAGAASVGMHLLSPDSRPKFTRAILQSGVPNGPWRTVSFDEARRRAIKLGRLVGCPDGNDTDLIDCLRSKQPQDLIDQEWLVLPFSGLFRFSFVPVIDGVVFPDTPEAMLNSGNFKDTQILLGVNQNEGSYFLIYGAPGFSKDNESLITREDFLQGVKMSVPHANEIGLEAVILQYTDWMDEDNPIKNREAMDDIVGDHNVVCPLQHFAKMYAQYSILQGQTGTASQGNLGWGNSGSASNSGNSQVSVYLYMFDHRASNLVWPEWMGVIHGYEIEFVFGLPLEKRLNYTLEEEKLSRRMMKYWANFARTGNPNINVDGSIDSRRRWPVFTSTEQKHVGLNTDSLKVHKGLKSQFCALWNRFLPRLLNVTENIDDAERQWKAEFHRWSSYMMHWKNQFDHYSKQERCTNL

The experiment concerns the target Acetylcholinesterase (AChE, from electric eel) (Electrophorus electricus, UniProt O42275). The experiment can be described thus: In vitro AChE inhibition assay. It is filed as biochemical.
As for `CC1=C(C(=O)NC(=O)c2cnccn2)C(c2ccccc2)NC(=O)N1` (stereo not drawn) [Compound 4a, 6-Methyl-2-oxo-4-phenyl-N-(pyrazin-2-ylcarbonyl)-1,2,3,4-tetrahydropyrimidine-5-carboxamide], half-maximal inhibition (IC50) was put at 5.35 ± 0.01 µM.

For the molecule `CC1=C(C(=O)NC(=O)c2cnccn2)C(c2ccccc2)NC(=S)N1` (stereo not drawn) [Compound 4b, 6-Methyl-4-phenyl-N-(pyrazin-2-ylcarbonyl)-2-thioxo-1,2,3,4-tetrahydropyrimidine-5-carboxamide], the midpoint of inhibition, the IC50, lay at 5.26 ± 0.01 µM. As for `CC1=C(C(=O)NC(=O)c2cnccn2)C(c2cccc([N+](=O)[O-])c2)NC(=O)N1` (stereo not drawn) [Compound 4c, 6-Methyl-4-(3-nitrophenyl)-2-oxo-N-(pyrazin-2-ylcarbonyl)-1,2,3,4-tetrahydropyrimidine-5-carboxamide], the IC50 (as a rule, the concentration that inhibits the measured activity by half) was determined as 2.54 ± 0.01 µM. Compared with the last molecule, the IC50 is about 2.1-fold lower. `CC1=C(C(=O)NC(=O)c2cnccn2)C(c2cccc([N+](=O)[O-])c2)NC(=S)N1` (stereo not drawn) [Compound 4d, 6-Methyl-4-(3-nitrophenyl)-N-(pyrazin-2-ylcarbonyl)-2-thioxo-1,2,3,4-tetrahydropyrimidine-5-carboxamide] returned a 50% inhibitory concentration (IC50) of 1.82 ± 0.01 µM. With `CC1=C(C(=O)NC(=O)c2cnccn2)C(c2cccc(Cl)c2)NC(=O)N1` (stereo not drawn) [Compound 4e, 4-(3-Chlorophenyl)-6-methyl-2-oxo-N-(pyrazin-2-ylcarbonyl)-1,2,3,4-tetrahydropyrimidine-5-carboxamide], the IC50 was 1.21 ± 0.01 µM.

As for `CC1=C(C(=O)NC(=O)c2cnccn2)C(c2cccc(Cl)c2)NC(=S)N1` (stereo not drawn) [Compound 4f, 4-(3-Chlorophenyl)-6-methyl-N-(pyrazin-2-ylcarbonyl)-2-thioxo-1,2,3,4-tetrahydropyrimidine-5-carboxamide], the IC50 stood at 1.05 ± 0.01 µM. To `CC1=C(C(=O)NC(=O)c2cnccn2)C(c2ccc(F)cc2)NC(=O)N1` (stereo not drawn) [Compound 4g, 4-(4-Fluorophenyl)-6-methyl-2-oxo-N-(pyrazin-2-ylcarbonyl)-1,2,3,4-tetrahydropyrimidine-5-carboxamide] belongs 0.86 ± 0.01 µM; to `CC1=C(C(=O)NC(=O)c2cnccn2)C(c2ccc(F)cc2)NC(=S)N1` (stereo not drawn) [Compound 4h, 4-(4-Fluorophenyl)-6-methyl-N-(pyrazin-2-ylcarbonyl)-2-thioxo-1,2,3,4-tetrahydropyrimidine-5-carboxamide], 0.75 ± 0.01 µM. The molecule `CC1=C(C(=O)NC(=O)c2cnccn2)C(c2ccc(Cl)cc2)NC(=O)N1` (stereo not drawn) [Compound 4i, 4-(4-Chlorophenyl)-6-methyl-2-oxo-N-(pyrazin-2-ylcarbonyl)-1,2,3,4-tetrahydropyrimidine-5-carboxamide] gave a half-maximal inhibitory concentration (IC50) of 0.94 ± 0.01 µM. In turn, `CC1=C(C(=O)NC(=O)c2cnccn2)C(c2ccc(Cl)cc2)NC(=S)N1` (stereo not drawn) [Compound 4j, 4-(4-Chlorophenyl)-6-methyl-N-(pyrazin-2-ylcarbonyl)-2-thioxo-1,2,3,4-tetrahydropyrimidine-5-carboxamide] registered a half-inhibitory concentration (IC50) of 0.88 ± 0.01 µM. Consider `CC1=C(C(=O)NC(=O)c2cnccn2)C(c2ccncc2)NC(=O)N1` (stereo not drawn) [Compound 4k, 6-Methyl-2-oxo-N-(pyrazin-2-ylcarbonyl)-4-(pyridin-4-yl)-1,2,3,4-tetrahydropyrimidine-5-carboxamide], for which the concentration for half-maximal inhibition (IC50) is 0.19 ± 0.01 µM. `CC1=C(C(=O)NC(=O)c2cnccn2)C(c2ccncc2)NC(=S)N1` (stereo not drawn) [Compound 4l, 6-Methyl-N-(pyrazin-2-ylcarbonyl) -4-(pyridin-4-yl) -2-thioxo-1,2,3,4-tetrahydropyrimidine-5-carboxamide]: the IC50 was found to be 0.11 ± 0.01 µM.
